Experimental data as given in US20060177821A1, “Association of the h2 haplotype of the p2y12 receptor with an increased risk for thrombosis and peripheral arterial disease” (priority 2002, published 2006).
Read-outs that look alike come from different tables or passages of the source.

What was measured:
platelets = experiment: ADP-induced platelet aggregation in platelet-rich plasma (photometric aggregometry); type: cell-based, human; conditions: 2 μM ADP; for maximal aggregation: mean±SEM; for maximal aggregation in response to ADP (median): citrated PRP, average of visits 1 and 2
Method: Venous blood was collected between 8:00 and 10:00 am, after an overnight fast, in tubes containing either 0.105 M sodium citrate (1 vol/9 vol) (BD Vacutainer®, Becton Dickinson, Le Pont de Claix, France) or 50 μg/mL lepirudine (Refludan®, Hoechst, Paris, France) using a 19-gauge needle and no tourniquet. The first 2 ml of blood was discarded. Platelet-rich plasma (PRP) was obtained by centrifugation at 1000 rpm for 10 min at room temperature. Autologous platelet-poor plasma, obtained by further centrifugation at 4000 rpm for 15 min, was used to adjust the platelet count of PRP to 250×10^9/L.
Aggregation studies were performed within 2 hours after blood collection. Aggregation was measured at 37° C. by using a photometric method on a four-channel aggregometer (Regulest® Amneville, France). A 280-μL aliquot of PRP was incubated for 3 min at 37° C. and then was stirred at 1100 rpm for 2 min before adding 20 μL of saline or ADP (Sigma-Aldrich, St Quentin Fallavier, France) at 1, 2 or 5 μM (final concentration). The platelet aggregation response was recorded for 5 min.

[1] = system: iloprost-stimulated cAMP accumulation in platelets (P2Y12 regulation of adenylate cyclase); experiment: Inhibition by ADP of iloprost-stimulated cAMP accumulation in platelets (EIA); type: cell-based; conditions: Homo sapiens, Platelet, citrated PRP, read-out: inhibition of iloprost-stimulated cAMP formation; for inhibition at 1 µM: 1 μM ADP; for inhibition at 2 µM: 2 μM ADP; for inhibition at 5 µM: 5 μM ADP
Method: Platelet cAMP content was measured in 20 selected subjects by incubating 270 μL of PRP with 10 μL of a solution of the stable prostacyclin analog iloprost (20 μg/L, final concentration) (Ilomédine®, Schering-Plough) for 1 min, with stirring, then adding 20 μL of saline or ADP (1, 2 or 5 μM). The reaction was stopped 3 min later by adding 20 μL of 12% trichloroacetic acid. CAMP was then extracted and measured with an enzyme immunoassay (EIA) (Amersham, Pharmacia Biotech, Orsay, France) according to the manufacturer's instructions, without knowledge of the subject's P2Y12 genotype.

[2] = platelets from carriers of the H2 haplotype
[3] = platelets from non carriers of the H2 haplotype

SMILES: Nc1ncnc2c1ncn2[C@@H]1O[C@H](COP(=O)(O)OP(=O)(O)O)[C@@H](O)[C@H]1O [ADP, adenosine 5′-diphosphate]
- maximal aggregation (platelets; citrate-anticoagulated PRP (low Ca++), 10 carriers of the H2 allele): 71.5%±5.2%
- maximal aggregation (platelets; citrate-anticoagulated PRP (low Ca++), 10 non carriers of the H2 allele): 50.7%±7.2%
- maximal aggregation in response to ADP (median) (platelets; subjects carrying no H2 alleles (H1/H1, n=74)): 34.7%
- maximal aggregation in response to ADP (median) (platelets; subjects carrying one H2 allele (H1/H2, n=21)): 67.9%
- maximal aggregation in response to ADP (median) (platelets; subjects carrying two H2 alleles (H2/H2, n=3)): 82.4%
- maximal aggregation (platelets; hirudin-anticoagulated PRP (physiological Ca++), 10 carriers of the H2 allele): 53.8%±3.9%
- maximal aggregation (platelets; hirudin-anticoagulated PRP (physiological Ca++), 10 non carriers of the H2 allele): 42.8%±3.4%
- inhibition at 1 µM [1, 2]: 31%
- inhibition at 1 µM [1, 3]: 13%
- inhibition at 2 µM [1, 2]: 39%
- inhibition at 2 µM [1, 3]: 31%
- inhibition at 5 µM [1, 2]: 50%
- inhibition at 5 µM [1, 3]: 37%
